{"source": "patent US20110027293A1", "about": "“METHODS AND COMPOSITIONS FOR THE INHIBITION OF VIRAL INFECTION BY TARGETING INTRACELLULAR TRAFFICKING” (priority 2008, published 2011)", "key": {"MoMLV": {"tested_on": "MoMLV", "test": "GFP expression of cells infected with MoMLV construct with and without EHNA", "format": "cell-based, Moloney murine leukemia virus (MoMLV)", "settings": "relative to infection in the absence of EHNA; FIG. 15A vs 15C", "procedure": "(§1) The levels of infection are based on the inhibition of GFP expression, which was determined by infection of cells by MoMLV and HCV viral constructs that included cloned GFP. To determine the consequences of dynein inhibition on the viral life cycle, the expression of viral genes was correlated to the expression (or loss of expression) of GFP. Pictured are cells infected with MoMLV and Hepatitis C with and without EHNA-induced dynein inhibition. Brightness is an indication of GFP expression.\n(§2) ATPase activity was inhibited using an anti-dynein small organic molecule (erythro-9-(2-hydroxy-3-nonyl)adenine; EHNA) in another set of experiments. EHNA was obtained from A. G. Scientific and dissolved in Dubelco's Modified Eagle's Medium (DMEM). The solution was added to several sets of treated cells with final concentrations of 0.1 μM, 0.2 μM, 0.5 μM, and 1 μM (FIG. 14).\n(§3) To determine the consequences of the loss of cytoplasmic dynein motor activity on the viral life cycle, we cloned the green fluorescent protein (GFP) gene into the viral genomes and assessed GFP expression upon loss of cytoplasmic dynein motor activity (FIG. 15)."}, "hepatitis C virus (HCV)": {"tested_on": "hepatitis C virus (HCV)", "test": "GFP expression of cells infected with HCV construct with and without EHNA", "format": "cell-based", "settings": "relative to infection in the absence of EHNA; FIG. 15B vs 15D", "procedure": "as §1, §2, §3"}}}
{"compound": "CCCCCC[C@@H]([C@@H](C)O)n1cnc2c(N)ncnc21", "note": "(racemic) [EHNA, erythro-9-(2-hydroxy-3-nonyl)adenine]", "values": [{"measurement": "infection by MoMLV (inhibition of GFP expression)", "setting": "MoMLV", "result": "inhibits infection"}, {"measurement": "infection by hepatitis C virus (inhibition of GFP expression)", "setting": "hepatitis C virus (HCV)", "result": "inhibits infection"}]}
